Laboratory results as given in BindingDB's records for doi:10.1111/cbdd.12744 (Southern Research Institute, 2016).

Target: T1, Kinesin-like protein KIF11 [15-368] (Homo sapiens, UniProt P52732)
T1 construct: 15-368
T1 sequence (P52732 whole entry): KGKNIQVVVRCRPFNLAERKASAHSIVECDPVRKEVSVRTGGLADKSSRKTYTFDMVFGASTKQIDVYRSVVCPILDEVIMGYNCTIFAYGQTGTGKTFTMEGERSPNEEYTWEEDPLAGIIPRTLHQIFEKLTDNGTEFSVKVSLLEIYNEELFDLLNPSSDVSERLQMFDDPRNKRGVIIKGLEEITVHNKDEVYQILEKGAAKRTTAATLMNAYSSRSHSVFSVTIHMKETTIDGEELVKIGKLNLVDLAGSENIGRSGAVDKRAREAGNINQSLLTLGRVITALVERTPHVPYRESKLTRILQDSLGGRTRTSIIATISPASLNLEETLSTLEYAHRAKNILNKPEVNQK
Assay: ADP Hunter Plus Assay
Details: pH 7; 25 °C
Protocol: Compounds were first tested in triplicates at 100 uM; hit compounds were further tested with a 10-point twofold serial dilution to confirm their activity and determine their IC50 values. S-Trityl-L-cysteine (STLC), a selective Eg5 inhibitor(J. Biol. Chem. 2006, 281:17559-17569; Mol. Cancer Ther. 2004, 3:1079-1090), was used as the control compound. Specifically, 20 uL of 15 mM PIPES (pH 7.0) containing 1 mM MgCl2, 50 nM MT, 20 uM paclitaxel, 200 uM ATP, 5% DMSO, 60 nM Eg5 proteins, and 1:2 serial dilutions of each individual compound starting from 1000 uM were added to each well of a 96-well plate. The plate was incubated at room temperature for 0.5 h, and then, the ADP Hunter Plus reagents were added. The plate was further incubated for 0.5 h and then read for fluorescence (ex.530/em.590) on Synergy 4 (BioTek, Winooski, VT, USA).

| SMILES | IC50 [µM] |
| --- | --- |
| Cc1ccc(C2C(C#N)=C(N)Nc3ncnn32)cc1 (stereo not drawn) [SRI35564] | 118 |
| FC(F)(F)c1ccc(Nc2ncnc3[nH]ncc23)cc1 [SRI35565] | 78.9 |
| O=C1CC(c2ccccc2)c2c(n3ncnc3[nH]c2=O)N1 (stereo not drawn) [SRI35566] | 65 |
